Laboratory results as given in patent US4923969A, “Preparation of 99m Tc radiopharmaceuticals” (The Commonwealth of Australia, priority 1983, dated 1990).

Assay: Stability of dried 99mTcNCl4- preparation
Format: physicochemical
Protocol: Samples of the ^99m TcNCl4^- preparation were taken to dryness in a rotary evaporator and stored for 24 hours (a) in air at room temperature, (b) at 80° C., and (c) at room temperature and 100% humidity. They were then used to prepare ^99m TcN-DTPA by addition of ligand as before.

**Q.** For [N]#[99Tc-]([Cl])([Cl])([Cl])[Cl].[Na+] [^99m TcNCl4^-, sodium tetrachloronitridotechnetate], which “chromatographic behaviour (HPLC) after storage of the dry reagent” value (24 hours in air at room temperature, at 80° C., or at room temperature and 100% humidity, tested as 99mTcN-DTPA) is on record?
**A.** No significant difference in chromatographic behaviour

**Q.** What about the “stability of the dry preparation for distribution” value (dry preparation) of the same compound?
**A.** sufficiently stable to be prepared in a central laboratory or manufacturing site and distributed to users

**Q.** What about the “storage time for which the dry reagent was stable ("stable for up to")” value (dry, air at room temperature, 80° C., or room temperature and 100% humidity) of the same compound?
**A.** ≥ 24 h
